Assay results published in publication PMC9849758, “Chemically diverse activity-based probes with unexpected inhibitory mechanisms targeting trypsin-like serine proteases” (Frontiers in Chemistry, 2023).
Entries after “also recorded” stand apart in the source; their conditions may differ.

System: proteases in human mast cell supernatants
Assay: Labeling of mast cell supernatants, functional proteomic profiling
Settings: 1 µM ABP, 10 µg total protein, two donors, IgE/DNP stimulated and non-stimulated
Experimental: Peripheral blood mononuclear cells (PBMCs) were obtained from buffy coats (Etablissement Français du Sang). CD34^+ precursors cells were isolated from PBMCs (EasySep™ Human CD34 Positive Selection Kit, STEMCELL Technologies) and grown under serum-free conditions using StemSpanTM medium (STEMCELL Technologies) supplemented with recombinant human IL-6 (50 ng/ml; Peprotech), human IL-3 (10 ng/ml; Peprotech) and 3% supernatant of CHO transfectants secreting murine SCF (a gift from Dr. P. Dubreuil, Marseille, France, 3% correspond to ∼50 ng/ml SCF) for 1 week. Cells were next grown in IMDM Glutamax I, sodium pyruvate, 2-mercaptoethanol, .5% BSA, Insulin-transferrin selenium (all from Invitrogen), penicillin (100 U/ml), streptomycin (100 μg/ml) and 3% supernatant of CHO transfectants secreting murine SCF for 8 weeks then tested phenotypically (CD117+, FcεRI+) and functionally (β-hexosaminidase release in response to FcεRI crosslinking) before use for experiments. Only primary cell lines showing more than 95% CD117+/FcεRI+ cells were used for experiments.
1 × 10^5 mast cells were distributed in 50 µl Tyrode’s Buffer and adapted to 37°C for 30 min. Mast cells were next stimulated with DNP-BSA (200 ng/ml) after sensitization with 1 μg/ml of IgE anti DNP (Sigma-Aldrich) overnight. Supernatants were harvested and stored at −80°C. (β-hexosaminidase was assayed by measuring the release of p-nitrophenol from the substrate p-nitrophenyl N-acetyl-β-D-glucosaminide).
Mast cell supernatants (10 µg of total protein) were labeled with 1 µM individual ABPs (46b, 52b, or 57b) in 50 mM Tris, 120 mM NaCl, .1 mg/ml BSA, 50 μg/ml heparin, pH 8 at 25°C (Sigma-Aldrich) in a final volume of 500 µL. […] The molecular weight of each band was determined with the Image Lab Software v5 (Bio-Rad) with Dual Color Protein Precision Plus Standard (10–250 kDa; Bio-Rad) as reference. […]

| Compound | labeling of proteases in mast cell supernatants |
| --- | --- |
| C[C@@H]1NC(=O)N[C@@H]1CCCCCC(=O)NCCOCCOCCOCCn1cc(CCCOC(=O)NC(Cc2ccc(NC(=N)N)cc2)P(=O)(Oc2ccc(Cl)cc2)Oc2ccc(Cl)cc2)nn1 (stereo partly drawn) [54b] | can label proteases in a complex proteome; also recorded: best resolution |
| C[C@@H]1NC(=O)N[C@@H]1CCCCCC(=O)NCCOCCOCCOCCn1cc(CCCOC(=O)NC(CCCNC(=N)N)P(=O)(Oc2ccc(Cl)cc2)Oc2ccc(Cl)cc2)nn1 (stereo partly drawn) [46b] | can label proteases in a complex proteome |
| C[C@@H]1NC(=O)N[C@@H]1CCCCCC(=O)NCCOCCOCCOCCn1cc(CCCOC(=O)NC(c2ccc(NC(=N)N)cc2)P(=O)(Oc2ccc(Cl)cc2)Oc2ccc(Cl)cc2)nn1 (stereo partly drawn) [57b] | can label proteases in a complex proteome |
